Assay results from patent US12077503B2, “Substituted cyclic amides and their use as herbicides” (FMC CORPORATION, priority 2015, dated 2024).

Legend:
Format in all cases: in vivo
[1] = test system: Galium (catchweed bedstraw, Galium aparine); test: Test A postemergence; details: Galium, post-emergence, 240 h; for pest or weed control at 125 g/ha: 125 g ai/ha, postemergence, visual injury on 0 to 100 scale (0 no effect, 100 complete control), approx. 10 d, read-out: Galium plant response rating; for pest or weed control at 31 g/ha: Postemergence, 31 g ai/ha, visual injury after approx. 10 d, 0 to 100 scale, 0 no effect, 100 complete control, read-out: Plant response rating, Galium
Summary of the method: (§1)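 Seeds sprayed preemergence with a directed soil spray, or plants at 2 to 10 cm height and one- to two-leaf stage sprayed postemergence, with test chemicals in a non-phytotoxic solvent mixture containing surfactant, in loam soil–sand blend. Injury rated visually against untreated controls after about 10 d in greenhouse, 0 (no effect) to 100 (complete control).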

[2] = test system: ryegrass, Italian (Italian ryegrass, Lolium multiflorum); test: Test A postemergence; details: Lolium multiflorum, post-emergence, 240 h; for pest or weed control at 125 g/ha: 125 g ai/ha, postemergence, visual injury vs untreated controls after approx. 10 d, 0 = no effect, 100 = complete control, read-out: Ryegrass, Italian plant response rating (0 to 100 scale); for pest or weed control at 31 g/ha: Postemergence, 31 g ai/ha, visual injury after approx. 10 d, 0 to 100 scale, 0 no effect, 100 complete control, read-out: Plant response rating, Ryegrass, Italian
Summary of the method: as §1

[3] = test system: blackgrass (Alopecurus myosuroides); test: Test A postemergence; details: Alopecurus myosuroides, post-emergence, 240 h; for pest or weed control at 125 g/ha: 125 g ai/ha, postemergence, visual injury on 0 to 100 scale (0 no effect, 100 complete control), approx. 10 d, read-out: Blackgrass plant response rating; for pest or weed control at 31 g/ha: Postemergence, 31 g ai/ha, visual injury after approx. 10 d, 0 to 100 scale, 0 no effect, 100 complete control, read-out: Plant response rating, Blackgrass
Summary of the method: as §1

[4] = test system: barnyardgrass (Echinochloa crus-galli); test: Test A postemergence; details: Echinochloa crus-galli, post-emergence, 240 h; for pest or weed control at 125 g/ha: 125 g ai/ha, postemergence, visual injury on 0 to 100 scale (0 no effect, 100 complete control), approx. 10 d, read-out: Barnyardgrass plant response rating; for pest or weed control at 31 g/ha: Postemergence, 31 g ai/ha, visual injury after approx. 10 d, 0 to 100 scale, 0 no effect, 100 complete control, read-out: Plant response rating, Barnyardgrass
Summary of the method: as §1

corn (Zea mays) = test: Test A postemergence; details: Zea mays, post-emergence, 240 h; for plant injury at 125 g/ha: 125 g ai/ha, postemergence, visual injury on 0 to 100 scale (0 no effect, 100 complete control), approx. 10 d, read-out: Corn plant response rating; for Corn plant response rating (crop injury, 0 = no effect, 100 = complete kill) at 31 g/ha: Postemergence, 31 g ai/ha, visual injury after approx. 10 d, 0 to 100 scale, 100 complete control
Summary of the method: as §1

[5] = test system: giant foxtail (Setaria faberii); test: Test A postemergence; details: Setaria faberi, post-emergence, 240 h; for pest or weed control at 125 g/ha: 125 g ai/ha, postemergence, visual injury on 0 to 100 scale (0 no effect, 100 complete control), approx. 10 d, read-out: Foxtail, Giant plant response rating; for pest or weed control at 31 g/ha: Postemergence, 31 g ai/ha, visual injury after approx. 10 d, 0 to 100 scale, 0 no effect, 100 complete control, read-out: Plant response rating, Foxtail, Giant
Summary of the method: as §1

[6] = test system: pigweed (Amaranthus retroflexus); test: Test A postemergence; details: Amaranthus retroflexus, post-emergence, 240 h; for pest or weed control at 125 g/ha: 125 g ai/ha, postemergence, visual injury vs untreated controls after approx. 10 d, 0 = no effect, 100 = complete control, read-out: Pigweed plant response rating (0 to 100 scale); for pest or weed control at 31 g/ha: Postemergence, 31 g ai/ha, visual injury after approx. 10 d, 0 to 100 scale, 0 no effect, 100 complete control, read-out: Plant response rating, Pigweed
Summary of the method: as §1

Kochia (Kochia scoparia) [7] = test: Test A postemergence; details: Bassia scoparia, post-emergence, 240 h; for pest or weed control at 125 g/ha: 125 g ai/ha, postemergence, visual injury on 0 to 100 scale (0 no effect, 100 complete control), approx. 10 d, read-out: Kochia plant response rating; for pest or weed control at 31 g/ha: Postemergence, 31 g ai/ha, visual injury after approx. 10 d, 0 to 100 scale, 0 no effect, 100 complete control, read-out: Plant response rating, Kochia
Summary of the method: as §1

[8] = test system: ragweed (common ragweed, Ambrosia elatior); test: Test A postemergence; details: Ambrosia artemisiifolia, post-emergence, 240 h; for pest or weed control at 125 g/ha: 125 g ai/ha, postemergence, visual injury vs untreated controls after approx. 10 d, 0 = no effect, 100 = complete control, read-out: Ragweed plant response rating (0 to 100 scale); for pest or weed control at 31 g/ha: Postemergence, 31 g ai/ha, visual injury after approx. 10 d, 0 to 100 scale, 0 no effect, 100 complete control, read-out: Plant response rating, Ragweed
Summary of the method: as §1

[9] = test system: wheat (Triticum aestivum); test: Test A postemergence; details: Triticum aestivum, post-emergence, 240 h; for plant injury at 125 g/ha: 125 g ai/ha, postemergence, visual injury vs untreated controls after approx. 10 d, 0 = no effect, 100 = complete control, read-out: Wheat plant response rating (0 to 100 scale); for plant injury at 31 g/ha: Postemergence, 31 g ai/ha, visual injury after approx. 10 d, 0 to 100 scale, 0 no effect, 100 complete control, read-out: Plant response rating, Wheat
Summary of the method: as §1

[10] = test system: ducksalad (Heteranthera limosa); test: Test B flooded paddy test; details: Heteranthera limosa, 250 g ai/ha, Flood; 0 to 100 scale where 0 is no effect and 100 is complete control; read-out: Ducksalad plant response rating
Summary of the method: (§2)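 Greenhouse paddy pots with 2-leaf stage plants received compound by direct addition to floodwater 3 cm deep, kept at that level. Scored visually at 13–15 d versus controls (0 no effect; 100 complete control).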

[11] = test system: barnyardgrass (Echinochloa crus-galli); test: Test B flooded paddy test; details: Echinochloa crus-galli, 250 g ai/ha, Flood; 0 to 100 scale where 0 is no effect and 100 is complete control; read-out: Barnyardgrass plant response rating
Summary of the method: as §2

rice (Oryra sativa) = test: Test B flooded paddy test; details: Oryza sativa, 250 g ai/ha, Flood; 0 to 100 scale where 0 is no effect and 100 is complete control; read-out: Rice plant response rating
Summary of the method: as §2

[12] = test system: sedge, umbrella (small-flower umbrella sedge, Cyperus difformis); test: Test B flooded paddy test; details: Cyperus difformis, 250 g ai/ha, Flood; 0 to 100 scale where 0 is no effect and 100 is complete control; read-out: Sedge, Umbrella plant response rating
Summary of the method: as §2

[13] = test system: ryegrass, Italian (Italian ryegrass, Lolium multiflorum); test: Test A preemergence; details: Lolium multiflorum, pre-emergence, 240 h, 0 to 100 scale where 0 is no effect and 100 is complete control, read-out: Ryegrass, Italian plant response rating; for pest or weed control at 31 g/ha: 31 g ai/ha, Preemergence; for pest or weed control at 125 g/ha: 125 g ai/ha, preemergence, approx. 10 d
Summary of the method: as §1

[14] = test system: barnyardgrass (Echinochloa crus-galli); test: Test A preemergence; details: Echinochloa crus-galli, pre-emergence, 240 h, 0 to 100 scale where 0 is no effect and 100 is complete control, read-out: Barnyardgrass plant response rating; for pest or weed control at 31 g/ha: 31 g ai/ha, Preemergence; for pest or weed control at 125 g/ha: 125 g ai/ha, preemergence, approx. 10 d
Summary of the method: as §1

[15] = test system: giant foxtail (Setaria faberii); test: Test A preemergence; details: Setaria faberi, pre-emergence, 240 h, 0 to 100 scale where 0 is no effect and 100 is complete control, read-out: Foxtail, Giant plant response rating; for pest or weed control at 31 g/ha: 31 g ai/ha, Preemergence; for pest or weed control at 125 g/ha: 125 g ai/ha, preemergence, approx. 10 d
Summary of the method: as §1

[16] = test system: pigweed (Amaranthus retroflexus); test: Test A preemergence; details: Amaranthus retroflexus, pre-emergence, 240 h, 0 to 100 scale where 0 is no effect and 100 is complete control, read-out: Pigweed plant response rating; for pest or weed control at 31 g/ha: 31 g ai/ha, Preemergence; for pest or weed control at 125 g/ha: 125 g ai/ha, preemergence, approx. 10 d
Kochia (Kochia scoparia) [17] = test: Test A preemergence; details: Bassia scoparia, pre-emergence, 240 h, 0 to 100 scale where 0 is no effect and 100 is complete control, read-out: Kochia plant response rating; for pest or weed control at 31 g/ha: 31 g ai/ha, Preemergence; for pest or weed control at 125 g/ha: 125 g ai/ha, preemergence, approx. 10 d
Summary of the method: as §1

[18] = test system: ragweed (common ragweed, Ambrosia elatior); test: Test A preemergence; details: Ambrosia artemisiifolia, pre-emergence, 240 h, 0 to 100 scale where 0 is no effect and 100 is complete control, read-out: Ragweed plant response rating; for pest or weed control at 31 g/ha: 31 g ai/ha, Preemergence; for pest or weed control at 125 g/ha: 125 g ai/ha, preemergence, approx. 10 d
Summary of the method: as §1

| SMILES | pest or weed control at 125 g/ha [1] [%] | pest or weed control at 31 g/ha [1] [%] | pest or weed control at 125 g/ha [2] [%] | pest or weed control at 31 g/ha [2] [%] | pest or weed control at 125 g/ha [3] [%] | pest or weed control at 31 g/ha [3] [%] | pest or weed control at 125 g/ha [4] [%] | pest or weed control at 31 g/ha [4] [%] | plant injury at 125 g/ha (corn (Zea mays)) [%] | Corn plant response rating (crop injury, 0 = no effect, 100 = complete kill) at 31 g/ha (corn (Zea mays)) [%] | pest or weed control at 125 g/ha [5] [%] | pest or weed control at 31 g/ha [5] [%] | pest or weed control at 125 g/ha [6] [%] | pest or weed control at 31 g/ha [6] [%] | pest or weed control at 125 g/ha (Kochia (Kochia scoparia) [7]) [%] | pest or weed control at 31 g/ha (Kochia (Kochia scoparia) [7]) [%] | pest or weed control at 125 g/ha [8] [%] | pest or weed control at 31 g/ha [8] [%] | plant injury at 125 g/ha [9] [%] | plant injury at 31 g/ha [9] [%] | also measured |
| --- | --- | --- | --- | --- | --- | --- | --- | --- | --- | --- | --- | --- | --- | --- | --- | --- | --- | --- | --- | --- | --- |
| CN1C[C@H](c2ccc(Cl)cc2)[C@@H](C(=O)Nc2ccc(F)c(F)c2F)C1=O [Compound 1144] | 40 | 0 | 60 | 30 | 40 | 0 | 90 | 90 | 50 | 20 | 90 | 80 | 30 | 0 | 70 | 50 | 70 | 20 | 50 | 30 | pest or weed control at 250 g/ha [10]: 100%; pest or weed control at 250 g/ha [11]: 85%; pest or weed control at 250 g/ha (rice (Oryra sativa)): 20%; pest or weed control at 250 g/ha [12]: 0%; pest or weed control at 31 g/ha [13]: 50%; pest or weed control at 125 g/ha [13]: 50%; pest or weed control at 31 g/ha [14]: 90%; pest or weed control at 125 g/ha [14]: 90%; pest or weed control at 31 g/ha [15]: 90%; pest or weed control at 125 g/ha [15]: 90%; pest or weed control at 31 g/ha [16]: 30%; pest or weed control at 125 g/ha [16]: 80%; pest or weed control at 31 g/ha (Kochia (Kochia scoparia) [17]): 50%; pest or weed control at 125 g/ha (Kochia (Kochia scoparia) [17]): 60%; pest or weed control at 31 g/ha [18]: 0%; pest or weed control at 125 g/ha [18]: 20% |
| C=C(C)c1ccc([C@H]2CN(C)C(=O)[C@@H]2C(=O)Nc2cccc(F)c2C)cc1 [Compound 1150] | 20 | 0 | 0 | 0 | 0 | 0 | 40 | 0 | 20 | 0 | 50 | 0 | 0 | 0 | 20 | 0 | 0 | 0 | 0 | 0 | pest or weed control at 250 g/ha [10]: 0%; pest or weed control at 250 g/ha [11]: 0%; pest or weed control at 250 g/ha (rice (Oryra sativa)): 0%; pest or weed control at 250 g/ha [12]: 0%; pest or weed control at 31 g/ha [13]: 0%; pest or weed control at 125 g/ha [13]: 0%; pest or weed control at 31 g/ha [14]: 0%; pest or weed control at 125 g/ha [14]: 70%; pest or weed control at 31 g/ha [15]: 30%; pest or weed control at 125 g/ha [15]: 90%; pest or weed control at 31 g/ha [16]: 0%; pest or weed control at 125 g/ha [16]: 0%; pest or weed control at 31 g/ha (Kochia (Kochia scoparia) [17]): 0%; pest or weed control at 125 g/ha (Kochia (Kochia scoparia) [17]): 0%; pest or weed control at 31 g/ha [18]: 0%; pest or weed control at 125 g/ha [18]: 0% |
